Assay results as given in BindingDB's records for doi:10.1021/np200492k (Seoul National University, 2011).

Columns and labels:
Isocitrate lyase = Isocitrate lyase (Candida albicans, UniProt Q9P8Q7); assay: Inhibition of Candida albicans isocitrate lyase
Sortase family protein = target: T1, Sortase family protein (Staphylococcus aureus, UniProt Q9S446); assay: Inhibition of recombinant Staphylococcus aureus ATCC 6538p sortase lacking the N-terminal membrane anchor domain expressed in Escherichia coli cells TOP10 using Dabcyl-QALPETGEE-Edans substrate measured after 1 hr by fluorescence S13 spectrophotometry
T1 sequence (Q9S446 whole entry): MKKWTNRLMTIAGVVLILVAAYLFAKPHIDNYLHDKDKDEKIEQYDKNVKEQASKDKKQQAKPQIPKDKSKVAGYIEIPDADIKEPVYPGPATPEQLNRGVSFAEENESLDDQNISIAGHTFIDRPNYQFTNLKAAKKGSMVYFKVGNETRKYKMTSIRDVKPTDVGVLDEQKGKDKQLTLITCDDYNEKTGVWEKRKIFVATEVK

Sequence of Isocitrate lyase (Q9P8Q7 whole entry, the tested form may be a part): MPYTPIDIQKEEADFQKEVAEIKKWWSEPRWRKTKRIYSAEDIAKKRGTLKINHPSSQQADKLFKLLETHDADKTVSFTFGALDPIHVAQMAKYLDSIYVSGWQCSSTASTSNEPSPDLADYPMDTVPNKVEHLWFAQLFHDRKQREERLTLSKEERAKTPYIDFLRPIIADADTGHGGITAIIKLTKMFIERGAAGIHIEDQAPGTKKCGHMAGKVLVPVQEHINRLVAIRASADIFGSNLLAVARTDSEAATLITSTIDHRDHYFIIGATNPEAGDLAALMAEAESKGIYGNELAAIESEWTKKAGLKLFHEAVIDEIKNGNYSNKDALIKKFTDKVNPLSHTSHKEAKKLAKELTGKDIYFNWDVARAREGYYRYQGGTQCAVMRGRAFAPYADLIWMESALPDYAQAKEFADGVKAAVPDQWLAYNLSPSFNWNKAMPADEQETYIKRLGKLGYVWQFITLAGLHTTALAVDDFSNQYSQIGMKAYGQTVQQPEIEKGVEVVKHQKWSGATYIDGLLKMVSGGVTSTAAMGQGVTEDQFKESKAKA

| SMILES | IC50 (Isocitrate lyase) [µM] | IC50 (Sortase family protein) [µM] |
| --- | --- | --- |
| CC1(C)CCC[C@]2(C)[C@H]3CC/C(=C\OS(=O)(=O)O)[C@H](CCc4ccoc4)[C@@]3(C)CC[C@@H]12 | 17 | – |
| O=C(O)c1cc[c]([Hg][OH])cc1 | – | 116 |
